Where “and” joins values, the source holds several entries; their conditions need not be identical. Equal entries are not always repeated.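 96-well plates; 48 h exposure; 5 concentrations. Endpoints by linear interpolation between flanking doses. Not reached: highest tested concentration assigned. At the GI50, growth is halved. At the TGI there is no net growth.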

For 8 molecules, GI50 and TGI results are on record in PubChem BioAssay (NCI).

Among the test systems are A549 NSCLC; UACC-257 melanoma; IGROV1 ovarian; EKVX NSCLC; CCRF-CEM leukemia; SK-MEL-5 melanoma; HCT-116 colon; OVCAR-8 ovarian; LOX IMVI melanoma; SN12C renal.
Holding throughout (experiment): NCI anticancer screen, dose series, 48 h

In the case of `ClCCn1cnc2c(SCc3ccccc3)ncnc21`, the GI50 with A549 NSCLC was 1.22 µM; with UACC-257 melanoma it was 14.1 µM; in the assay with IGROV1 ovarian, 0.497 µM; in the assay with EKVX NSCLC, 18.3 µM; in the assay on CCRF-CEM leukemia it was 0.889 µM; in the assay on SK-MEL-5 melanoma, 0.79 µM. Further, the GI50 was 0.381 µM in the assay on HCT-116 colon, 1.18 µM in the assay on OVCAR-8 ovarian, 0.534 µM in the assay with LOX IMVI melanoma and 8.54 µM in the assay with SN12C renal. The TGI is 76.5 µM in the assay on A549 NSCLC; > 100 µM in the assay on UACC-257 melanoma; 10.7 µM in the assay on IGROV1 ovarian; > 100 µM with EKVX NSCLC; > 100 µM with CCRF-CEM leukemia; > 100 µM in the assay with SK-MEL-5 melanoma. In addition, the TGI is 38.4 µM with HCT-116 colon, > 100 µM in the assay on OVCAR-8 ovarian, 18.6 µM in the assay with LOX IMVI melanoma and > 100 µM in the assay with SN12C renal.

Regarding `CCCCS(=N)(=O)CC[C@H](N)C(=O)O` (stereo partly drawn), the GI50 with A549 NSCLC is > 8030 µM; in the assay with UACC-257 melanoma, > 10000 µM; with IGROV1 ovarian it was 336 µM; with EKVX NSCLC it was 615 µM; with CCRF-CEM leukemia, 302 µM; in the assay on SK-MEL-5 melanoma it was > 10000 µM. The GI50 is > 9060 µM with HCT-116 colon, 2.12 µM in the assay with LOX IMVI melanoma and > 10000 µM in the assay on SN12C renal. The TGI with A549 NSCLC was > 10000 µM; in the assay on UACC-257 melanoma, > 10000 µM; in the assay on IGROV1 ovarian, 4980 µM and 6370 µM; in the assay on EKVX NSCLC, 1720 µM and 3890 µM; in the assay on CCRF-CEM leukemia, 2790 µM and 2140 µM; in the assay on SK-MEL-5 melanoma, > 10000 µM. Moreover, the TGI in the assay with HCT-116 colon is > 10000 µM; in the assay with OVCAR-8 ovarian it was 2920 µM and > 2770 µM; with SN12C renal, > 10000 µM.

Turning to `Cc1ccc(-n2c(C)nc3c2C(=O)c2ccccc2C3=O)cc1`, the TGI in the assay on A549 NSCLC is > 100 µM; in the assay on UACC-257 melanoma, 57 µM; in the assay on IGROV1 ovarian, > 100 µM; with EKVX NSCLC, > 100 µM; with CCRF-CEM leukemia, > 100 µM; with SK-MEL-5 melanoma, > 100 µM. Further, the TGI in the assay on HCT-116 colon was 21.4 µM; in the assay with OVCAR-8 ovarian, > 100 µM; with LOX IMVI melanoma, 97.2 µM; in the assay on SN12C renal, > 100 µM.

With `OC1CCC(Oc2cccc3cnc(Nc4ccc5nc[nH]c5c4)nc23)CC1` (stereo not drawn), the GI50 in the assay with A549 NSCLC is 0.404 µM; with UACC-257 melanoma, 1.2 µM; with IGROV1 ovarian, 0.287 µM; with EKVX NSCLC, 0.487 µM; in the assay with CCRF-CEM leukemia, 0.282 µM; with SK-MEL-5 melanoma it was 0.47 µM. In addition, the GI50 in the assay on HCT-116 colon is 0.191 µM; in the assay with OVCAR-8 ovarian, 0.521 µM; in the assay on LOX IMVI melanoma, 0.231 µM; with SN12C renal it was 0.392 µM. Also, the TGI in the assay with A549 NSCLC stood at 19.7 µM; in the assay with UACC-257 melanoma, 8.92 µM; in the assay on IGROV1 ovarian, 16.6 µM; in the assay on EKVX NSCLC, 10.8 µM; in the assay with CCRF-CEM leukemia it was 17.3 µM; with SK-MEL-5 melanoma it was 6.51 µM. For the same molecule, the TGI in the assay with HCT-116 colon amounted to 12 µM; in the assay on OVCAR-8 ovarian, 43 µM; in the assay on LOX IMVI melanoma it was 11.4 µM; in the assay on SN12C renal it was 72.7 µM.

As to `COc1ccc([N+](=O)[O-])c2c(NCC(O)CO)ccnc12` (stereo not drawn), the TGI was > 100 µM in the assay on A549 NSCLC; 95.9 µM in the assay with UACC-257 melanoma; 97.5 µM in the assay with IGROV1 ovarian; 82.3 µM with EKVX NSCLC; > 100 µM with CCRF-CEM leukemia; 60.8 µM in the assay on SK-MEL-5 melanoma. Further, the TGI with HCT-116 colon, with OVCAR-8 ovarian, in the assay with LOX IMVI melanoma and with SN12C renal was > 100 µM each time.

As for `O=C1C=C(c2cc(Br)c(O)c(Br)c2)/C(=C/c2cc(Br)c(O)c(Br)c2)O1`, the GI50 is 11.2 µM with A549 NSCLC; > 75 µM in the assay with UACC-257 melanoma; 17.8 µM in the assay on IGROV1 ovarian; 54.1 µM in the assay on EKVX NSCLC; 7.38 µM in the assay on CCRF-CEM leukemia; 29 µM in the assay on SK-MEL-5 melanoma. Also, the GI50 in the assay with HCT-116 colon is 14.8 µM; in the assay on OVCAR-8 ovarian, 29 µM; with LOX IMVI melanoma, 14.9 µM; in the assay on SN12C renal, 36.5 µM. Moreover, the TGI was 49.3 µM in the assay on A549 NSCLC; > 75 µM in the assay with UACC-257 melanoma; > 75 µM in the assay on IGROV1 ovarian; > 75 µM with EKVX NSCLC; 73.8 µM with CCRF-CEM leukemia; > 75 µM in the assay on SK-MEL-5 melanoma. The TGI in the assay on HCT-116 colon was 43.8 µM; in the assay with OVCAR-8 ovarian it was > 75 µM; in the assay on LOX IMVI melanoma, 43.2 µM; with SN12C renal, > 75 µM.

On to `Nc1ncnc2c1ncn2C1OC(C(=O)O)C(O)C1O` (stereo not drawn), for which the TGI in the assay on A549 NSCLC, in the assay on UACC-257 melanoma, with IGROV1 ovarian, in the assay with EKVX NSCLC, in the assay with CCRF-CEM leukemia and in the assay with SK-MEL-5 melanoma was > 100 µM each time. In addition, the TGI in the assay on HCT-116 colon, in the assay on OVCAR-8 ovarian, with LOX IMVI melanoma and with SN12C renal was > 100 µM in each case.

`c1ccc(COc2ccc3[nH]c4c(ncc5[nH]c6ccccc6c54)c3c2)cc1`: the TGI with A549 NSCLC is 34.9 µM; with UACC-257 melanoma it was 32.8 µM; in the assay with IGROV1 ovarian, 18.9 µM; in the assay with EKVX NSCLC it was 32.4 µM; in the assay with CCRF-CEM leukemia, 40.7 µM; in the assay with SK-MEL-5 melanoma it was 30 µM. Further, the TGI in the assay on HCT-116 colon amounted to 27 µM; with OVCAR-8 ovarian it was 32.2 µM; in the assay on LOX IMVI melanoma it was 32.9 µM; in the assay with SN12C renal, 29.7 µM.
